Measured values published in US4889860A (Nova Pharmaceutical Corporation, priority 1987, dated 1989).
Like-named read-outs stand apart in the source and are kept apart here.

Key:
[1] = tested on: bombesin-induced scratching; assay: bombesin-induced scratching test; type: in vivo; conditions: sc; subcutaneous; read-out: mean A50, bombesin-induced scratching
Source text: (Cowan A. Trendsin Pharmacology Science, 7:69-72, 1986) With this test the intracerebroventricular administration of bombesin produces a characteristic scratching response.

[2] = conditioned taste aversion in rats; type: in vivo, rat; conditions: I.P., day 10
Experimental: The ability of a compound to inhibit feeding may not be related to its anorectic properties, but rather to the ability of that compound to produce a conditioned taste aversion. This possibility was tested in the following experiment. Animals were adapted to water deprivation by restricting their access to water to a single 30 min presentation occurring at the same time every day. Baseline water intakes were determined for 7 days until intakes had stabilized, and animals were assigned to treatment groups based on their intakes on the final baseline day. On the following day (day 8), all rats received a bottle of condensed milk (diluted 2:1 water:milk) in place of the water, and intakes were recorded for 30 min. Fifteen minutes after the milk was removed, rats were administered an I.P. injection of vehicles, LiCl (299.6 μmol/kg) or the compound of Example XII (1.15, 2.31, 11.55 and 23.09 μmol/kg). The compound of Example XII was dissolved in 0.3% acetic acid in a volume of 4 ml/kg. LiCl was dissolved in saline, and serves as a positive control, since it is a compound that reliably produces a strong conditioned taste aversion. This procedure was repeated on day 9. On day 10, all rats were given a two-bottle choice of water or the milk:water solution, and intakes were recorded for 30 min. Data for each experiment were analyzed by one-way ANOVA, and post-hoc comparisons were performed using Dunnett's test.
The effects of the compound of Example XII in producing a conditioned taste aversion are illustrated in FIGS. 28 and 29. In FIGS. 28 and 29 the data represent the mean ±SEM for each group. **=p<0.01 (Dunnett's test). Abbreviations: SAL, saline; AA, 0.3% acetic acid in distilled water; LiCl, lithium chloride. Doses of the compound of Example XII for each group are expressed in μmole/kg. The number of animals per group: SAL, 4: AA, LiCl and each dose of Example XII, 5. FIG. 28: Total milk intake in ml on day 10. FIG. 29: Preference ratio on day 10.

mu-type opioid receptor = biological target: T1, mu-type opioid receptor (Rattus norvegicus, UniProt P33535); assay: inhibition of specific [^3 H] DAGO binding to rat forebrain membranes
T1 construct: using rat forebrain membranes; from tissue; host or cells: rat forebrain membranes
T1 sequence (P33535 whole entry): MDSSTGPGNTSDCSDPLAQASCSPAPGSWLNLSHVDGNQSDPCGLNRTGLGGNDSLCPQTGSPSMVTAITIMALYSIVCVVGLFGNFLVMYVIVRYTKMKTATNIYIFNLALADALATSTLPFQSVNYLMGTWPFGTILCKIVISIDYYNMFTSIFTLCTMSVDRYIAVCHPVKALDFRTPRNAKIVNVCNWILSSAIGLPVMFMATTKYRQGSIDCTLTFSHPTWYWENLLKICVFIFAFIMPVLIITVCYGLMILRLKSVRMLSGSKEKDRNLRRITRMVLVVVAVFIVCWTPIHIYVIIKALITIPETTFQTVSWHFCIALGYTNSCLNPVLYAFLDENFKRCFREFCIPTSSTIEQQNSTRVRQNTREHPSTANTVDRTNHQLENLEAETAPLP
Experimental: (§1) The interaction of some of the novel compounds with mu and delta-type opioid receptors present in brain membranes was examined in vitro. […] DAGO (mu-type receptor) or [^3 H] DADLE (delta-type receptor) was determined using rat forebrain membranes. Computer assisted analysis (EBDA) was used to determine apparent Ki values for the various compounds.
(§2) Values represent the MEAN±S.E.M. of the Ki(nM) for each compound to inhibit specific binding of the indicated ligand to rat brain membranes. The values are from two-five separate experiments and were calculated according to the method of Cheng and Prusoff [Biochem. Pharmacol. 1973, 22, 3099-3108] together with the EBDA Program. Numbers in parentheses are the mean Hill coefficients for each compound to inhibit ligand binding.
as §2, with “two.div.seven” for “two-five”, “Prusoff” for “Prusoff [Biochem. Pharmacol. 1973, 22, 3099-3108]”, “program.” for “Program.”, “binding. N.D.=not determined” for “binding.”
(§3) The interaction of some of the novel compounds with mu, delta and kappa - type opioid receptors present in brain membranes was examined in vitro. […] DAGO (mu-type receptor), or [^3 H] DADLE (Delta-type receptor) using rat forebrain membranes and [^3 H] EKC (kappa-type receptor) using guiniea pig cerebellum membrane was determined. Computer assisted analysis (EBDA) was used to determine apparent Ki values for the various compounds.
(§4) The values represent the MEAN±S.E.M. of the Ki(nM) for each compound to inhibit specific binding of the indicated ligand. Each value represents the mean of three individual experiments performed on separate occasions.

[3] = biological target: delta-type opioid receptor (Rattus norvegicus, UniProt P33533); assay: inhibition of specific [^3 H] DADLE binding to rat forebrain membranes
delta-type opioid receptor, sequence (P33533 whole entry): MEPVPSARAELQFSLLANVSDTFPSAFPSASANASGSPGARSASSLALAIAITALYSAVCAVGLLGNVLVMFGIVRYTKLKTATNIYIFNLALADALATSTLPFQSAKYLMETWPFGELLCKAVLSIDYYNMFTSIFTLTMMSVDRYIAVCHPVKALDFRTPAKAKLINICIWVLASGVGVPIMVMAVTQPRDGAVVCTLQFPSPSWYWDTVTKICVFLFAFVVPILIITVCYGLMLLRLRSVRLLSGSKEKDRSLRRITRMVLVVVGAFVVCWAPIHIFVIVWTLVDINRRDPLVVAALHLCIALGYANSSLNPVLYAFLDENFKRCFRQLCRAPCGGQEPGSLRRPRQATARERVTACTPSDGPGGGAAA
Experimental: as §1, §2
as §2, with “two.div.seven” for “two-five”, “Prusoff” for “Prusoff [Biochem. Pharmacol. 1973, 22, 3099-3108]”, “program.” for “Program.”, “binding. N.D.=not determined” for “binding.”
as §3, §4

tail flick response = assay: radiant heat tail flick analgesia in rats; type: in vivo, rat; conditions: for ED50: Rattus norvegicus; for dose producing approximately equal analgesia: tail flick, through 3.5 hr
Experimental: The analgesic properties of the compounds prepared in accordance with Examples III and IV were evaluated in rats using the radiant heat and tail flick paradigm. […] Flick latencies in FIGS. 11-13 were determined at 30 minute intervals through 3.5 h and the data was expressed as a percentage of the maximum possible effect (% MPE). A 15 sec. cut-off latency was used to minimize tissue damage. The values shown are the mean values for 6 rats.
(§5) A 15 sec. cut-off latency was used to prevent tissue damage.
The analgesic properties of compounds XXII and XXIII were evaluated in rats using the writhing assay and tail flick paradigm. […] The writhing assay which uses a chemical stimulus to produce pain, is believed to be more sensitive to kappa agonist activity than other measures of analgesia which uses a heat stimulus (Dykstra, L.A. Behavioral Pharmacology: The Current Status, N.Y.: Allan R. Liss. Inc. 1985).

[4] = deaths of rats during tail flick experiment at high doses; conditions: S.C.
Source text: as §5

[5] = biological target: T2, kappa-type opioid receptor (Cavia porcellus, UniProt P41144); assay: inhibition of specific [^3 H] EKC binding to guinea pig cerebellum membrane; conditions: than other compounds or naltrexone
T2 construct: using guiniea pig cerebellum membrane; from tissue; host or cells: guinea pig cerebellum membranes
T2 sequence (P41144 whole entry): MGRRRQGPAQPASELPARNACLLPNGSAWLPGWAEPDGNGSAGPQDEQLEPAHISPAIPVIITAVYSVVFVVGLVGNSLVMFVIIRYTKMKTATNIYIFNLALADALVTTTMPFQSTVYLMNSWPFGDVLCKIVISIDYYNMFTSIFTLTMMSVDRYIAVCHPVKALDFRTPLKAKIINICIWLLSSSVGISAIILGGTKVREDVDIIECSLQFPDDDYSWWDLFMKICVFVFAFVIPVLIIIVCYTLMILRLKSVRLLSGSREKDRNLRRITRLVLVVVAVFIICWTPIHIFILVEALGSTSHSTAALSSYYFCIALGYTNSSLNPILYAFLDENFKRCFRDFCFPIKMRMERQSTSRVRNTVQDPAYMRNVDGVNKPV
Experimental: as §3, §4

writhing response = assay: animal or person; type: in vivo, mouse
[6] = Simone et al.; cited from earlier work
[7] = 1 and 2 mg/kg; cited from earlier work
[8] = Ki, inhibition of specific [^3 H] DAGO binding, Tables 1 and 2, rat brain membranes, MEAN±S.E.M.
[9] = read-out: Ki, inhibition of specific [^3 H] DADLE binding, Tables 1 and 2, rat brain membranes, MEAN±S.E.M.
[10] = sc, 0.5 h, S.C., 30 min, read-out: ED50, tail flick analgesia

Oc1ccc2c3c1O[C@H]1C(=NOCCCc4ccccc4)CC[C@@]4(O)[C@@H](C2)N(CC2CC2)CC[C@]314 [6[3-phenylpropyl] oximino naltrexone]
ED50 [1]: 0.08 mg/kg

[Cl-].[Li+] [LiCl, lithium chloride, reference compound]
conditioned taste aversion (milk intake, preference ratio) [2]: significant decreases in milk intake and in the preference ratio were evident only for LiCl

CN1CC[C@]23c4c5ccc(O)c4O[C@H]2C(=NOCc2ccccc2)CC[C@@]3(O)[C@H]1C5 [Example III, 6-Benzyloximino-17-methyl-4,5 α-epoxy-3, 14-dihydroxymorphinan]
Ki (mu-type opioid receptor; [8]): 1.58 ± 0.07 nM
Ki [3, 9]: 2.8 ± 1.6 nM
ED50 (tail flick response; [10]): 0.64 µmol/kg
dose producing approximately equal analgesia (tail flick response; S.C.): ~2.21 µmol/kg
number of deaths out of six rats ([4]; 8.85 μmole/kg): 1
number of deaths out of six rats ([4]; 17.7 μmole/kg): 3
number of deaths out of six rats ([4]; 26.6 μmole/kg): 3

CN1CC[C@]23c4c5ccc(O)c4O[C@H]2C(=NOc2ccccc2)CC[C@@]3(O)[C@H]1C5 [Example IV, 6-Phenyloximino-17-methyl-4,5 α-epoxy-3, 14-dihydroxymorphinan]
Ki (mu-type opioid receptor; [8]): 0.84 ± 0.09 nM
Ki [3, 9]: 0.91 ± 0.1 nM
ED50 (tail flick response; [10]): 0.18 µmol/kg
dose producing approximately equal analgesia (tail flick response; S.C.): ~1.12 µmol/kg
number of deaths out of six rats ([4]; 4.48 μmole/kg): 1
number of deaths out of six rats ([4]; 8.95 μmole/kg): 1
number of deaths out of six rats ([4]; 13.4 μmole/kg): 2

Oc1ccc2c3c1O[C@H]1C(=NOCCCc4ccccc4)CC[C@@]4(O)[C@@H](C2)N(CC2CC2)CC[C@]314 [Example XXIII]
Ki (mu-type opioid receptor; read-out: (Ki) nM, μ receptor (Rat Forebrain), Table 6, [^3 H] DAGO, mean of three experiments): 0.32 nM
Ki ([3]; read-out: (Ki) nM, δ receptor (Rat Forebrain), Table 6, [^3 H] DADLE, mean of three experiments): 0.44 nM
fold more potent to inhibit specific [3H]EKC [5]: 100 fold
ED50 (tail flick response; Table 7, read-out: ED50, Antagonism of the Tail-Flick Response in the Rat): 1.84 mg/kg
antagonism of tail-flick response to heat (tail flick response; rat): effectively antagonized the tail-flick response to a heat stimulus in the rat
ED50 (writhing response; Mus musculus, Table 7, read-out: ED50, Acetic Acid Induced Writhing in the Mouse): 0.02 mg/kg
potency versus morphine to antagonize writhing response (writhing response; mouse, in vivo, ip): more potent than morphine to antagonize the writhing response
kappa selectivity and agonist activity (writhing response; writhing and tail flick): selective to kappa receptors and possess kappa agonist activity

C=CCN1CC[C@]23c4c5ccc(O)c4O[C@H]2/C(=N/N=C2\CC[C@@]4(O)[C@H]6Cc7ccc(O)c8c7[C@@]4(CCN6CC=C)[C@H]2O8)CC[C@@]3(O)[C@H]1C5 [naloxonazine]
inhibition of overnight feeding [6]: inhibition of overnight feeding

COC(=O)CON=C1CC[C@@]2(O)[C@H]3Cc4ccc(OC)c5c4[C@@]2(CCN3CC2CC2)[C@H]1O5 [N-cyclopropylmethyl-nor-14-hydroxydihydrocodeinone-6-carboxymethyl methyl ester]
suppression of symptoms in morphine dependent monkeys [7]: partial suppression of symptoms was obtained
